{"source": "patent US7556939B2", "about": "“Identification and characterization of racemases, definition of protein signatures, and a test for detecting D-amino acid and for screening molecules capable of inhibiting the activity of racemase, especially proline racemase” (Institut Pasteur, priority 2003, dated 2009)", "key": {"[1]": {"target": "T1, D-AAO (Sus scrofa, UniProt P00371)", "T1 construct": "purchased Sigma A-5222; host or cells: swine kidney", "T1 sequence (P00371 whole entry)": "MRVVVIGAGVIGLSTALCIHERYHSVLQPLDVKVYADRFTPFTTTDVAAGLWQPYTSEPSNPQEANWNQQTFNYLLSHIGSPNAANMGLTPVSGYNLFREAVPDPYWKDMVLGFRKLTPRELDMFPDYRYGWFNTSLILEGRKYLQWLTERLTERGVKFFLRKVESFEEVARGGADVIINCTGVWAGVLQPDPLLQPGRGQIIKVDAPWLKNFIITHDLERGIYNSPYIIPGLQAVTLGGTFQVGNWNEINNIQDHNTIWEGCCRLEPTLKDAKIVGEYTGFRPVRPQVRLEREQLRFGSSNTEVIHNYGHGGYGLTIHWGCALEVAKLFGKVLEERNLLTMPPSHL", "test": "D-AAO/HRP reaction on D-proline in presence of PAC or L-proline", "type": "biochemical, swine", "settings": "equimolar mixture of D- and L-Proline versus D-Proline alone"}, "[2]": {"tested_on": "TcPRAC enzyme isoforms", "settings": "span over the enzyme isoforms", "description": "Optical rotation was measured every 5 sec during 10 min and every 5 min to 1 hour. […] Calculations were done using the Kaleïdagraph program. […] Graphic representation and linear curve regression allowed the determination of Ki as [PAC]/[(slope with PAC/slope without PAC)−1]. All reagents were purchased from Sigma."}, "[3]": {"target": "T2, CsPR (Acetoanaerobium sticklandii, UniProt E3PTZ4)", "T2 sequence (E3PTZ4 1-335)": "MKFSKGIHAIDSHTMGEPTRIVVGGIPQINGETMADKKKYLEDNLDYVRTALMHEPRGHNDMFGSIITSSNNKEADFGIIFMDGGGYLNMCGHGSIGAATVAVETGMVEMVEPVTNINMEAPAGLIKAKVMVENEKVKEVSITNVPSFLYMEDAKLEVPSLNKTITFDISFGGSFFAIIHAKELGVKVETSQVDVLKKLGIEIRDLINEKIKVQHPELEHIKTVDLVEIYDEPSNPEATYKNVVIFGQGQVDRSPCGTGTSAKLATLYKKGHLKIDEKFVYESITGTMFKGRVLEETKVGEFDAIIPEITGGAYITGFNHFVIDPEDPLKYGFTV", "settings": "reported for the proline racemase of C. sticklandii; cited from earlier work"}}, "data": [{"smiles": "O=C(O)[C@@H]1CCCN1", "note": "[L-proline]", "values": [{"measurement": "effect on D-amino-oxidase activity", "setting": "[1]", "value": "Inhibits"}, {"measurement": "Km", "setting": "[2]", "value": "29 to 75", "unit": "mM"}, {"measurement": "Km", "setting": "[3]", "value": 2.3, "unit": "mM"}]}]}
